Experimental data published in PubChem BioAssay AID330 (DTP/NCI, 2004).
Values joined by “and” are separate entries in the source; they are usually repeats but may differ in a detail not shown here. Identical values can stand only once. Toxic doses and inconclusive results are not listed.

Test system: P388 leukemia ip, CD2F1 mice, survival T/C
Assay: NCI In Vivo Anticancer Drug Screen. Data for tumor model P388 Leukemia (intraperitoneal) in CD2F1 (CDF1) mice
Conditions: endpoint: median survival time, higher = longer survival
Method in brief: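 Mice carrying the transplanted tumor received test compound or vehicle. Survival was recorded in each group, and the value is the treated-group measurement divided by that of the vehicle-treated control group.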

[1] = dose: 12.5 mg/kg/injection, schedule: Q01DX005 (ip), vehicle: saline with Tween-80
[2] = dose: 25.0 mg/kg/injection, schedule: Q01DX005 (ip), vehicle: saline with Tween-80
[3] = dose: 50.0 mg/kg/injection, schedule: Q01DX005 (ip), vehicle: saline with Tween-80
[4] = dose: 100.0 mg/kg/injection, schedule: Q01DX005 (ip), vehicle: saline with Tween-80
[5] = dose: 200.0 mg/kg/injection, schedule: Q01DX005 (ip), vehicle: saline with Tween-80
[6] = dose: 100.0 mg/kg/injection, schedule: Q04DX003 (ip), vehicle: saline with Tween-80
[7] = dose: 200.0 mg/kg/injection, schedule: Q04DX003 (ip), vehicle: saline with Tween-80
[8] = dose: 400.0 mg/kg/injection, schedule: Q04DX003 (ip), vehicle: saline with Tween-80
[9] = dose: 60.0 mg/kg/injection, schedule: Q01DX005 (ip), vehicle: saline with Tween-80
[10] = dose: 120.0 mg/kg/injection, schedule: Q01DX005 (ip), vehicle: saline with Tween-80
[11] = dose: 240.0 mg/kg/injection, schedule: Q01DX005 (ip), vehicle: saline with Tween-80
[12] = dose: 25.0 mg/kg/injection, schedule: Q04DX003 (ip), vehicle: saline with Tween-80
[13] = dose: 50.0 mg/kg/injection, schedule: Q04DX003 (ip), vehicle: saline with Tween-80
[14] = dose: 50.0 mg/kg/injection, schedule: Q01DX005 (ip), vehicle: Klucel (hydroxypropylcellulose) (HPC)
[15] = dose: 100.0 mg/kg/injection, schedule: Q01DX005 (ip), vehicle: Klucel (hydroxypropylcellulose) (HPC)
[16] = dose: 200.0 mg/kg/injection, schedule: Q01DX005 (ip), vehicle: Klucel (hydroxypropylcellulose) (HPC)
[17] = dose: 50.0 mg/kg/injection, schedule: Q01DX009 (ip), vehicle: Klucel (hydroxypropylcellulose) (HPC)
[18] = dose: 6.25 mg/kg/injection, schedule: Q01DX009 (ip), vehicle: Klucel (hydroxypropylcellulose) (HPC)
[19] = dose: 12.5 mg/kg/injection, schedule: Q01DX009 (ip), vehicle: Klucel (hydroxypropylcellulose) (HPC)
[20] = dose: 25.0 mg/kg/injection, schedule: Q01DX009 (ip), vehicle: Klucel (hydroxypropylcellulose) (HPC)

SMILES: C[N+](C)(C)CC1CS1 (centres undefined)
- T/C (dose: 4.5 mg/kg/injection, schedule: Q01DX009 (ip), vehicle: saline): 104 % of control
- T/C (dose: 9.0 mg/kg/injection, schedule: Q01DX009 (ip), vehicle: saline): 95 % of control
- T/C (dose: 18.0 mg/kg/injection, schedule: Q01DX009 (ip), vehicle: saline): 100 % of control

SMILES: CC1C2CCC(C2)C1CNCC1C2CCC(C2)C1C (centres undefined)
- T/C [1]: 100 % of control
- T/C [2]: 103 % of control
- T/C [3]: 101 % of control and 105 % of control

SMILES: Cc1cc(C)nc(NS(=O)(=O)c2ccc(Nc3c4ccc(Cl)cc4nc4ncccc34)cc2)n1
- T/C [3]: 110 % of control
- T/C [4]: 106 % of control
- T/C [5]: 116 % of control

SMILES: COC(=O)C1CC(c2ccccc2)N(c2ccccc2)O1 (centres undefined) (tested in a mixture with another compound)
- T/C [6]: 95 % of control
- T/C [7]: 96 % of control
- T/C [8]: 94 % of control

SMILES: Cc1ccc([N+](=O)[O-])cc1NC(=O)NNC(=O)CNC(=O)NCc1ccco1
- T/C [9]: 93 % of control
- T/C [10]: 89 % of control
- T/C [11]: 89 % of control

SMILES: NS(=O)(=O)c1ccc(NCc2c3ccccc3nc3cc(Cl)ccc23)cc1
- T/C [9]: 104 % of control
- T/C [10]: 95 % of control
- T/C [11]: 94 % of control

SMILES: O=C1c2cccc(O)c2C(=O)c2c(OC3OC(CO)C(OC4OC(CO)C(O)C(O)C4O)C(O)C3O)cccc21 (centres undefined)
- T/C (dose: 12.5 mg/kg/injection, schedule: Q04DX003 (ip), vehicle: saline with Tween-80): 100 % of control
- T/C [12]: 100 % of control
- T/C (dose: 50.0 mg/kg/injection, schedule: Q01DX009 (ip), vehicle: saline): 104 % of control
- T/C [13]: 99 % of control
- T/C (dose: 100.0 mg/kg/injection, schedule: Q01DX009 (ip), vehicle: saline): 107 % of control
- T/C (dose: 200.0 mg/kg/injection, schedule: Q01DX009 (ip), vehicle: saline): 102 % of control

SMILES: CN1C(=O)CC2C(=O)N(Cc3ccccc3)C(=O)C2C1=O (centres undefined)
- T/C [3]: 101 % of control
- T/C [4]: 101 % of control
- T/C [5]: 96 % of control

SMILES: O=S(=O)(c1ccccc1)N1CCCCN(S(=O)(=O)c2ccccc2)COC1
- T/C [14]: 104 % of control
- T/C [15]: 102 % of control
- T/C [16]: 102 % of control

SMILES: CC(=O)NC1C(OC(C)=O)OC(C[Se][As](C)C)C(OC(C)=O)C1OC(C)=O (centres undefined)
- T/C [17]: 105 % of control
- T/C (dose: 100.0 mg/kg/injection, schedule: Q01DX009 (ip), vehicle: Klucel (hydroxypropylcellulose) (HPC)): 110 % of control

SMILES: O=C(Nc1ccccc1)N1c2ccccc2SC1c1ccco1 (centres undefined)
- T/C [3]: 101 % of control
- T/C [4]: 100 % of control
- T/C [5]: 92 % of control

SMILES: CCCCC([Se])=Nc1ccc(Br)cc1
- T/C [18]: 106 % of control
- T/C [19]: 104 % of control
- T/C [20]: 104 % of control

SMILES: CCOC(=O)c1cn[nH]c1N
- T/C [20]: 108 % of control
- T/C [17]: 93 % of control

SMILES: C=CC(=NC(C)(C)C)Nc1ccccc1Cl
- T/C (dose: 3.12 mg/kg/injection, schedule: Q01DX009 (ip), vehicle: Klucel (hydroxypropylcellulose) (HPC)): 104 % of control
- T/C [18]: 103 % of control
- T/C (dose: 6.25 mg/kg/injection, schedule: Q01DX009 (ip), vehicle: saline): 116 % of control
- T/C [19]: 102 % of control
- T/C (dose: 12.5 mg/kg/injection, schedule: Q01DX009 (ip), vehicle: saline): 118 % of control and 93 % of control
- T/C (dose: 25.0 mg/kg/injection, schedule: Q01DX009 (ip), vehicle: saline): 111 % of control

SMILES: N=C(N)Sc1ccc([N+](=O)[O-])cc1Cl
- T/C [14]: 104 % of control
- T/C [15]: 104 % of control
- T/C [16]: 101 % of control

SMILES: O=C1CCc2nc(-c3ccccc3)ncc21
- T/C [6]: 99 % of control
- T/C [7]: 89 % of control
- T/C [8]: 88 % of control

SMILES: CCOc1ccc(/C=C/C(C)=N/NC(N)=Nc2ccc(Cl)cc2)cc1
- T/C [1]: 96 % of control
- T/C [2]: 97 % of control
- T/C [3]: 107 % of control and 97 % of control

SMILES: ClC(Cl)(Cl)C1=NC2=C(Br)C=C(Br)C3=NC(C(Br)(Br)Br)=NC(=N1)N32
- T/C (dose: 60.0 mg/kg/injection, schedule: Q01DX005 (ip), vehicle: Klucel + Tween-80): 105 % of control
- T/C (dose: 120.0 mg/kg/injection, schedule: Q01DX005 (ip), vehicle: Klucel + Tween-80): 110 % of control

SMILES: CC12CCC3(CO3)CC1CCC1C2CCC2(C)C1CCC21CO1 (centres undefined)
- T/C (dose: 100.0 mg/kg/injection, schedule: Q01DX001 (ip), vehicle: saline with Tween-80): 102 % of control
- T/C (dose: 200.0 mg/kg/injection, schedule: Q01DX001 (ip), vehicle: saline with Tween-80): 99 % of control
- T/C (dose: 400.0 mg/kg/injection, schedule: Q01DX001 (ip), vehicle: saline with Tween-80): 88 % of control

SMILES: O=C1Nc2ccccc2C(=O)C1=Ic1ccccc1
- T/C (dose: 15.0 mg/kg/injection, schedule: Q01DX005 (ip), vehicle: Klucel (hydroxypropylcellulose) (HPC)): 101 % of control
- T/C (dose: 30.0 mg/kg/injection, schedule: Q01DX005 (ip), vehicle: Klucel (hydroxypropylcellulose) (HPC)): 104 % of control
- T/C [14]: 94 % of control
- T/C (dose: 60.0 mg/kg/injection, schedule: Q01DX005 (ip), vehicle: Klucel (hydroxypropylcellulose) (HPC)): 104 % of control and 88 % of control
- T/C [15]: 91 % of control

SMILES: O=c1cc(-c2ccc(OCc3ccccc3)cc2)oc2ccccc12
- T/C [3]: 92 % of control
- T/C [4]: 87 % of control
- T/C [5]: 86 % of control

SMILES: O=[N+]([O-])c1nccn1CCCl
- T/C (dose: 12.5 mg/kg/injection, schedule: Q01DX009 (ip), vehicle: distilled water + Tween-80): 95 % of control
- T/C (dose: 25.0 mg/kg/injection, schedule: Q01DX009 (ip), vehicle: distilled water + Tween-80): 113 % of control
- T/C (dose: 50.0 mg/kg/injection, schedule: Q01DX009 (ip), vehicle: distilled water + Tween-80): 100 % of control

SMILES: CC(=O)[O][Hg][CH]1C2CC3C(C2OC(C)=O)C31 (centres undefined)
- T/C (dose: 6.25 mg/kg/injection, schedule: Q01DX009 (ip), vehicle: saline with Tween-80): 105 % of control
- T/C (dose: 12.5 mg/kg/injection, schedule: Q01DX009 (ip), vehicle: saline with Tween-80): 112 % of control

SMILES: COc1ccc(C2CCc3cc4c(cc3C2=O)OCO4)cc1OC (centres undefined)
- T/C [7]: 90 % of control

SMILES: CC1(C)CC(OP(=S)(OC2CC(C)(C)N(O)C(C)(C)C2)N2CC2)CC(C)(C)N1O
- T/C (dose: 50.0 mg/kg/injection, schedule: Q01DX009 (ip), vehicle: saline + alcohol): 124 % of control
- T/C (dose: 200.0 mg/kg/injection, schedule: Q01DX009 (ip), vehicle: saline + alcohol): 168 % of control

SMILES: CC(N)C(=O)NC(C(=O)O)C(C)C (centres undefined)
- T/C (dose: 25.0 mg/kg/injection, schedule: Q01DX009 (ip), vehicle: saline with Tween-80): 102 % of control
- T/C (dose: 50.0 mg/kg/injection, schedule: Q01DX005 (ip), vehicle: saline): 93 % of control
- T/C (dose: 50.0 mg/kg/injection, schedule: Q01DX009 (ip), vehicle: saline with Tween-80): 100 % of control
- T/C (dose: 100.0 mg/kg/injection, schedule: Q01DX005 (ip), vehicle: saline): 100 % of control
- T/C (dose: 100.0 mg/kg/injection, schedule: Q01DX009 (ip), vehicle: saline with Tween-80): 96 % of control
- T/C (dose: 200.0 mg/kg/injection, schedule: Q01DX005 (ip), vehicle: saline): 98 % of control
- T/C (dose: 200.0 mg/kg/injection, schedule: Q01DX009 (ip), vehicle: saline with Tween-80): 111 % of control

SMILES: CCC(=O)c1ccc(Oc2c3ccccc3nc3ccccc23)cc1
- T/C [3]: 108 % of control
- T/C [4]: 117 % of control
- T/C [5]: 110 % of control

SMILES: O=C(c1ccccc1)C(O)O
- T/C [12]: 103 % of control
- T/C [13]: 106 % of control
- T/C [6]: 106 % of control and 109 % of control
